Some test systems named below: OVCAR-8 ovarian; SF-268 CNS; RXF 393 renal; NCI-H460 lung; EKVX NSCLC; K-562 leukemia; CCRF-CEM leukemia; SK-MEL-28 melanoma; RPMI-8226 leukemia; CAKI-1 renal.
What all share (assay): inhibition of tumour cell growth, NCI panel, 48 h

Where “and” joins values, the source holds several entries; their conditions need not be identical. Identical values can stand only once.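 Each compound was tested at five concentrations against cells in 96-well plates for 48 hours. GI50 marks 50% less growth. TGI: concentration producing complete growth inhibition.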

`[N-]=[N+]=N/C1=C/CCCCC(=O)C1`: the TGI in the assay on OVCAR-8 ovarian, with SF-268 CNS, in the assay on RXF 393 renal, in the assay with NCI-H460 lung, in the assay on EKVX NSCLC and in the assay on K-562 leukemia was more than 100 µM throughout. The TGI in the assay with CCRF-CEM leukemia, in the assay with SK-MEL-28 melanoma, in the assay on RPMI-8226 leukemia and in the assay on CAKI-1 renal was more than 100 µM in each case.
On to `CS(=O)(=O)Nc1cc(-c2ccc3ncnc(Nc4c(Cl)ccc5c4OCO5)c3c2)cnc1Cl`, for which the GI50 in the assay on OVCAR-8 ovarian is 0.387 µM; in the assay with SF-268 CNS, 0.119 µM; in the assay with RXF 393 renal, 0.143 µM; in the assay on NCI-H460 lung, 0.236 µM; with EKVX NSCLC, 0.116 µM; in the assay with K-562 leukemia, 0.484 µM. The GI50 is 0.15 µM in the assay with CCRF-CEM leukemia, 0.12 µM in the assay on SK-MEL-28 melanoma, 0.148 µM in the assay with RPMI-8226 leukemia and 0.053 µM in the assay on CAKI-1 renal. The TGI in the assay with SF-268 CNS was 1.48 µM; in the assay on RXF 393 renal, 0.575 µM; in the assay with NCI-H460 lung it was 4.76 µM; in the assay with EKVX NSCLC it was 0.824 µM; in the assay on K-562 leukemia, more than 48.4 µM; with CCRF-CEM leukemia it was 6.84 µM. Also, the TGI in the assay on SK-MEL-28 melanoma came to 1.03 µM; in the assay on RPMI-8226 leukemia, 0.566 µM; with CAKI-1 renal, 0.869 µM.
With `CC12CCC3c4ccc(O)cc4CCC3C1C/C(=N\O)C2O` (stereo not drawn), the TGI in the assay with OVCAR-8 ovarian, in the assay with SF-268 CNS, in the assay with RXF 393 renal, in the assay on NCI-H460 lung, in the assay on EKVX NSCLC and with K-562 leukemia was more than 100 µM in each case. The TGI in the assay with CCRF-CEM leukemia, with SK-MEL-28 melanoma, in the assay on RPMI-8226 leukemia and in the assay on CAKI-1 renal was more than 100 µM throughout.
In the case of `CN(C)c1ccc(N=Nc2ccccn2)c(O)c1`, the GI50 in the assay on OVCAR-8 ovarian was 0.321 µM; with SF-268 CNS it was 0.318 µM; with RXF 393 renal it was 0.229 µM; in the assay with NCI-H460 lung, 0.296 µM; in the assay with EKVX NSCLC, 0.2 µM; in the assay on K-562 leukemia it was 0.355 µM. For the same compound, the GI50 in the assay on CCRF-CEM leukemia is 0.0979 µM; with SK-MEL-28 melanoma, 0.672 µM; in the assay on RPMI-8226 leukemia it was 0.348 µM; in the assay with CAKI-1 renal it was 0.344 µM. For the same compound, the TGI is more than 100 µM in the assay on OVCAR-8 ovarian; more than 100 µM with SF-268 CNS; 0.929 µM in the assay on RXF 393 renal; more than 32.1 µM in the assay with NCI-H460 lung; 14.4 µM in the assay with EKVX NSCLC; more than 100 µM in the assay with K-562 leukemia. The TGI in the assay with SK-MEL-28 melanoma, with RPMI-8226 leukemia and in the assay on CAKI-1 renal was more than 100 µM throughout.
On to `COc1ccc2c(c1)c[n+](C)c1c3cc(OC)c(OC)cc3ccc21`, for which the TGI is 4.61 µM and 6.34 µM in the assay with OVCAR-8 ovarian; 9.9 µM in the assay on SF-268 CNS; 2.98 µM and 13.6 µM in the assay on RXF 393 renal; 2.72 µM and 10.9 µM in the assay on NCI-H460 lung; 4.52 µM and 42.3 µM in the assay with EKVX NSCLC; 43.1 µM with K-562 leukemia. Also, the TGI in the assay on CCRF-CEM leukemia was > 100 µM and 12.4 µM; in the assay on SK-MEL-28 melanoma, 3.45 µM and 27.3 µM; in the assay with RPMI-8226 leukemia, 7.28 µM; in the assay on CAKI-1 renal it was 32.2 µM and 44 µM. Moreover, the GI50 in the assay with RXF 393 renal was 1.5 µM and 5.8 µM; in the assay with NCI-H460 lung, 1.23 µM and 2.7 µM; in the assay with EKVX NSCLC, 1.5 µM and 11.3 µM; in the assay with CCRF-CEM leukemia, 0.559 µM and 1.42 µM; in the assay on SK-MEL-28 melanoma, 1.7 µM and 13 µM.
Take `CSc1ccccc1C#C/C=C\C#Cc1ccccc1N`: the GI50 is 35.8 µM in the assay on OVCAR-8 ovarian; 3.3 µM in the assay with SF-268 CNS; 24.5 µM in the assay on RXF 393 renal; 4.69 µM in the assay on NCI-H460 lung; 16.9 µM in the assay on EKVX NSCLC; 5.08 µM in the assay with K-562 leukemia. Further, the GI50 with CCRF-CEM leukemia is 4.98 µM; in the assay on SK-MEL-28 melanoma, 24.7 µM; in the assay with RPMI-8226 leukemia it was 2.72 µM; in the assay with CAKI-1 renal, 0.32 µM. Further, the TGI in the assay with OVCAR-8 ovarian was more than 100 µM; in the assay with SF-268 CNS, 25.4 µM; with RXF 393 renal it was more than 100 µM; in the assay on NCI-H460 lung it was 26 µM; in the assay on EKVX NSCLC, 57.4 µM; with K-562 leukemia, more than 100 µM. The TGI with CCRF-CEM leukemia was more than 100 µM; in the assay on SK-MEL-28 melanoma, 50.4 µM; with RPMI-8226 leukemia, 12.7 µM; in the assay with CAKI-1 renal, 1.68 µM.
On to `CN(C)C/C=C/C(=O)Nc1cc2c(Nc3ccc(F)c(Cl)c3)ncnc2cc1O[C@H]1CCOC1`, for which the GI50 in the assay with OVCAR-8 ovarian is 1.36 µM and 1.88 µM; in the assay on SF-268 CNS, 2.03 µM and 1.82 µM; in the assay with RXF 393 renal, 1.17 µM and 0.514 µM; in the assay with NCI-H460 lung, 2.87 µM and 3.46 µM; in the assay with EKVX NSCLC, < 0.01 µM and 0.003 µM; in the assay with K-562 leukemia it was 3.17 µM and 1.97 µM. Further, the GI50 with CCRF-CEM leukemia was 1.79 µM and 1.53 µM; in the assay with SK-MEL-28 melanoma it was 2.29 µM and 2.45 µM; in the assay with RPMI-8226 leukemia it was 1.76 µM and 2.14 µM; in the assay on CAKI-1 renal it was 0.0407 µM and 0.208 µM. In addition, the TGI was 5.37 µM and > 6.85 µM in the assay on OVCAR-8 ovarian; 8.58 µM and > 10 µM with SF-268 CNS; 6.79 µM and 4.13 µM with RXF 393 renal; 11.7 µM and > 10 µM in the assay on NCI-H460 lung; 11.3 µM and > 10 µM in the assay with EKVX NSCLC; 14.1 µM and > 10 µM in the assay on K-562 leukemia. Also, the TGI was 9.17 µM and > 7.56 µM with CCRF-CEM leukemia; 6.8 µM and > 10 µM in the assay on SK-MEL-28 melanoma; 5.39 µM and > 6.56 µM with RPMI-8226 leukemia; 8.39 µM and > 10 µM with CAKI-1 renal.
Consider `Cc1ccc(Nc2oc(-c3ccccc3)nc2[P+](c2ccccc2)(c2ccccc2)c2ccccc2)cc1`, for which the GI50 in the assay on OVCAR-8 ovarian was 1.04 µM; in the assay on SF-268 CNS, 1.56 µM; in the assay on RXF 393 renal it was 0.864 µM; with NCI-H460 lung, 0.804 µM; in the assay on EKVX NSCLC, 0.616 µM; in the assay with K-562 leukemia, 0.324 µM. Further, the GI50 with CCRF-CEM leukemia was 0.547 µM; in the assay with SK-MEL-28 melanoma it was 1.19 µM; with RPMI-8226 leukemia it was 0.243 µM; with CAKI-1 renal, 1.22 µM. For the same compound, the TGI came to 3.34 µM in the assay on OVCAR-8 ovarian; 4.9 µM in the assay on SF-268 CNS; 2.34 µM in the assay with RXF 393 renal; 2.2 µM with NCI-H460 lung; 2.38 µM in the assay on EKVX NSCLC; 1.44 µM in the assay with K-562 leukemia. The TGI in the assay on CCRF-CEM leukemia worked out at 4.77 µM; in the assay on SK-MEL-28 melanoma, 2.55 µM; in the assay on RPMI-8226 leukemia, 0.639 µM; in the assay on CAKI-1 renal, 2.72 µM.
Take `COC(=O)c1ccc2c(c1)/C(=C\c1cc(Br)c(O)c(Br)c1)C(=O)N2`: the GI50 with OVCAR-8 ovarian was 13 µM; in the assay on SF-268 CNS it was 10.1 µM; in the assay with RXF 393 renal it was 6.06 µM; with NCI-H460 lung, 7.57 µM; in the assay on EKVX NSCLC it was 15.8 µM; in the assay with K-562 leukemia it was 8.14 µM. Besides, the GI50 with CCRF-CEM leukemia was 5.98 µM; in the assay on SK-MEL-28 melanoma, 3.96 µM; in the assay on RPMI-8226 leukemia, 5.21 µM; in the assay on CAKI-1 renal it was 4.68 µM. Further, the TGI was more than 25 µM in the assay with OVCAR-8 ovarian; more than 25 µM in the assay with SF-268 CNS; more than 21.2 µM in the assay on RXF 393 renal; more than 25 µM in the assay with NCI-H460 lung; more than 25 µM with EKVX NSCLC; more than 25 µM with K-562 leukemia. For the same compound, the TGI in the assay with CCRF-CEM leukemia, with SK-MEL-28 melanoma, in the assay with RPMI-8226 leukemia and in the assay on CAKI-1 renal was more than 25 µM throughout.

The values are drawn from PubChem BioAssay (NCI).
